From patent US20100068812A1, “METHOD FOR INCREASING TRANSFORMATION EFFICIENCY IN PLANTS, COMPRISING COCULTURE STEP FOR CULTURING PLANT TISSUE WITH COCULTURE MEDIUM CONTAINING 3, 6-DICHLORO-O-ANISIC ACID” (Japan Tobacco Inc., priority 2007, published 2010)

Assays:
[1] = system: Maize (variety: A188) immature embryos; assay: Effect of auxin type in coculture medium on Agrobacterium-mediated transformation efficiency (GUS-positive plants / inoculated immature embryos); format: cell-based; settings: for transformation efficiency relative to control (2,4-D), in words / transformation efficiency: auxin 1.5 mg/l in coculture medium, Agrobacterium LBA4404 (pSB131); for transformation efficiency: coculture in the dark at 25° C. for 7 days, 33 to 35 immature embryos per test
From the text: (§1) Transformation efficiency can be determined by any calculation method commonly used by those skilled in the art, for example, can be determined from a value calculated by dividing the number of transformed plants by the number of Agrobacterium-inoculated explants.
(§2) FIG. 1 is a graph showing the effect of auxin type in a coculture medium on transformation efficiency in maize. 33 to 35 immature embryos were provided for each test. The vertical axis represents the transformation efficiency (calculated by dividing the number of GUS-positive plants obtained in each test by the number of inoculated immature embryos), while the horizontal axis represents the type of auxin contained in the coculture medium. The auxin concentration in the coculture medium was set to 1.5 mg/l for each test.
Maize (variety: A188) immature embryos (1.0 to 1.5 mm in size) at 7 to 14 days after pollination were aseptically collected and washed once with LS-inf liquid medium (Non-patent Publication No. 11), followed by pretreatment (thermal treatment at 46° C. for 3 minutes and centrifugation at 15,000 rpm for 10 minutes) to increase gene transfer efficiency. In LS-inf liquid medium containing 100 μM acetosyringone, Agrobacterium strain LBA4404 (pSB131) (Non-patent Publication No. 11) was suspended at about 1.0×10^9 cfu/ml to prepare an inoculum. The thermally-treated and centrifuged immature embryos were mixed with the inoculum, vortexed for 30 seconds, and then allowed to stand for 5 minutes at room temperature. The Agrobacterium-inoculated immature embryos were placed, with their embryonic discs facing up, onto a coculture medium containing 2,4,5-T (2,4,5-trichlorophenoxyacetic acid), picloram (4-amino-3,5,6-trichloropicolinic acid), TIBA (2,3,5-triiodobenzoic acid) or dicamba at a concentration of 1.5 mg/l in IS-AS medium (Non-patent Publication No. 11; solidified with 8 g/l agarose) which had been prepared to exclude 2,4-D and contain 5 μM AgNO3 and 5 μM CuSO4. A control medium was prepared to contain 5 μM AgNO3 and 5 μM CuSO4 in LS-AS medium (solidified with 8 g/l agarose).
The immature embryos cultured in the dark at 25° C. for 7 days were placed onto LSD1.5 medium (Non-patent Publication No. 11) containing 5 μM AgNO3, 5 mg/l phosphinothricin (PPT), 250 mg/l carbenicillin and 100 mg/l cefotaxime, and then cultured in the dark at 25° C. for 10 days. The immature embryos were transferred to the same medium, except that the PPT concentration was set to 10 mg/l, and cultured under the same conditions for 3 weeks. The grown calli were excised with a surgical knife, placed onto a fresh medium of the same composition, and cultured under the same conditions for 3 weeks. The grown calli were excised, placed onto LSZ medium (Non-patent Publication No. 11) containing 10 μM CuSO4 and 5 mg/l PPT, and cultured in the light at 25° C. for about 2 weeks. Along with determining the number of immature embryos which regenerated into whole plants, leaves of the regenerated plants were partially excised, immersed in 0.1 M phosphate buffer (pH 6.8) containing 0.1% Triton X-100 and allowed to stand at 37° C. for 1 hour. The phosphate buffer was removed and then replaced with another phosphate buffer containing 1.0 mM 5-bromo-4-chloro-3-indolyl-β-D-glucuronic acid (X-gluc) and 20% methanol. After incubation at 37° C. for 24 hours, GUS gene expression was examined.

[2] = system: immature embryos (variety: A188); assay: Effect of dicamba and 2,4-D in coculture medium on transformation efficiency (drop inoculation); format: cell-based, Maize; settings: for transformation efficiency: auxin 1.5 mg/l in coculture medium, Agrobacterium LBA4404 (U0009B) with hydroxyapatite, 25 to 26 immature embryos per test
From the text: as §1
as §2, with “FIG. 3” for “FIG. 1”, “in maize (drop inoculation). 25” for “in maize. 33”, “to 26” for “to 35”
The vector U0009B shown in FIG. 2 and SEQ ID NO: 1 was constructed by adding necessary elements to a vector having pSB11 (Non-patent Publication No. 27) as a skeletal structure. An inoculum (1 ml) of Agrobacterium strain LBA4404 (U0009B) prepared in the same manner as shown in Example 1 was supplemented with about 80 mg of hydroxyapatite (Bio-Rad). […] A control medium was prepared to contain 5 μM AgNO3 and 5 μM CuSO4 in LS-AS medium (solidified with 8 g/l agarose). After shaking with a vortex mixer to ensure a uniformly dispersed state of hydroxyapatite in the inoculum, 5 μl of the inoculum was added dropwise onto the immature embryos. After the inoculum added dropwise was dried, the immature embryos were transferred to another site on the same medium. After the culture container was sealed, coculture was performed in the dark at 25° C. for 7 days. The cocultured immature embryos were cultured in the same manner as shown in Example 1 to obtain regenerated plants, along with examining GUS gene expression in leaves of the regenerated plants.

[3] = system: maize immature embryos; settings: 15 μM dicamba vs 4.5 μM 2,4-D; cited from earlier work
[4] = system: maize; settings: 15 μM dicamba vs 6.75 μM 2,4-D; media also differ in other components (silver nitrate); cited from earlier work

O=C(O)COc1cc(Cl)c(Cl)cc1Cl [2,4,5-T, 2,4,5-trichlorophenoxyacetic acid]
transformation efficiency relative to control (2,4-D), in words [1]: lower than that of the control

O=C(O)COc1ccc(Cl)cc1Cl [2,4-D, 2,4-dichlorophenoxyacetic acid]
transformation efficiency [1]: 20.6% | transformation efficiency [2]: 11.5%

O=C(O)c1cc(I)cc(I)c1I [TIBA, 2,3,5-triiodobenzoic acid]
transformation efficiency relative to control (2,4-D), in words [1]: produced no transformed plant

COc1c(Cl)ccc(Cl)c1C(=O)O [dicamba, 3,6-dichloro-o-anisic acid]
transformation efficiency [1]: 27.3% | increase in the transformation efficiency compared to the conventional method using 2,4-D ([1]; dicamba 1.5 mg/l in coculture medium, 27.3/20.6): 1.33 fold | transformation efficiency [2]: 28.0% | increase in the transformation efficiency compared to the conventional method using 2,4-D ([2]; dicamba 1.5 mg/l, 28.0/11.5): 2.43 fold | formation rate of calli having regeneration ability, compared to 2,4-D [3]: increased | transformation efficiency, dicamba medium vs 2,4-D medium [4]: higher

Nc1c(Cl)c(Cl)nc(C(=O)O)c1Cl [picloram, 4-amino-3,5,6-trichloropicolinic acid]
transformation efficiency relative to control (2,4-D), in words [1]: lower than that of the control
